Some test systems named below: HL-60(TB) leukemia; MALME-3M melanoma; OVCAR-4 ovarian; OVCAR-8 ovarian; SK-MEL-28 melanoma; SK-OV-3 ovarian; T-47D breast; UACC-257 melanoma.
Holding throughout (assay): NCI anticancer screen, dose series, 48 h

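Method: 48-hour compound exposure of cells in 96-well plates, five concentrations, linear interpolation of endpoints. GI50: concentration for 50% inhibition of growth. TGI denotes the concentration required for complete inhibition of growth.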

Consider `Cn1c2c(c3ccc([N+](=O)[O-])cc3c1=O)C(=O)c1ccccc1-2`, for which the GI50 in the test with HL-60(TB) leukemia was more than 100 µM; in the test with MALME-3M melanoma, 70.3 µM; with OVCAR-4 ovarian, more than 100 µM; in the test on OVCAR-8 ovarian, more than 100 µM; in the test with SK-MEL-28 melanoma, more than 100 µM; with SK-OV-3 ovarian, more than 100 µM. The GI50 in the test on T-47D breast and with UACC-257 melanoma was more than 100 µM throughout. The TGI in the test on HL-60(TB) leukemia, in the test with MALME-3M melanoma, in the test on OVCAR-4 ovarian, in the test on OVCAR-8 ovarian, in the test on SK-MEL-28 melanoma and in the test on SK-OV-3 ovarian was more than 100 µM each time. For the same compound, the TGI in the test on T-47D breast and in the test with UACC-257 melanoma was more than 100 µM in each case.
In the case of `Cn1cnc([N+](=O)[O-])c1Sc1nc(N)nc2c1ncn2C1CC(O)C(CO)O1` (centres undefined), the TGI in the test on HL-60(TB) leukemia is more than 47.1 µM; in the test with MALME-3M melanoma, more than 100 µM; with OVCAR-4 ovarian, more than 83.1 µM; with OVCAR-8 ovarian, more than 100 µM; in the test on SK-MEL-28 melanoma, more than 100 µM; in the test on SK-OV-3 ovarian, more than 79.1 µM. The results for the TGI with T-47D breast and in the test on UACC-257 melanoma were more than 63.9 µM and more than 100 µM, respectively.
Take `CS(=O)(=O)CCc1cccc(C(=O)c2cnn(-c3ccc(F)cc3)c2N)c1`: the GI50 is more than 9.84 µM with HL-60(TB) leukemia; more than 25 µM in the test with MALME-3M melanoma; more than 25 µM in the test on OVCAR-4 ovarian; more than 25 µM with OVCAR-8 ovarian; more than 25 µM in the test with SK-MEL-28 melanoma; more than 25 µM in the test with SK-OV-3 ovarian. Also, the GI50 with T-47D breast and in the test on UACC-257 melanoma was more than 25 µM each time. Further, the TGI with HL-60(TB) leukemia is more than 23.8 µM; in the test with MALME-3M melanoma, more than 25 µM; in the test on OVCAR-4 ovarian, more than 25 µM; in the test on OVCAR-8 ovarian, more than 25 µM; in the test on SK-MEL-28 melanoma, more than 25 µM; in the test on SK-OV-3 ovarian, more than 25 µM. The TGI in the test on T-47D breast and with UACC-257 melanoma was more than 25 µM in each case.
As to `CN(Cc1ccccc1)c1ccc(CO)c(Cl)c1`, the GI50 with HL-60(TB) leukemia is 17.4 µM; with MALME-3M melanoma, 79 µM; with OVCAR-4 ovarian it was 2.54 µM; with OVCAR-8 ovarian it was 20.7 µM; in the test on SK-MEL-28 melanoma, 50.5 µM; in the test with SK-OV-3 ovarian, 8.99 µM. The GI50 in the test on T-47D breast was 0.857 µM; in the test with UACC-257 melanoma, 0.432 µM. For the same compound, the TGI in the test with HL-60(TB) leukemia is 80 µM; in the test on MALME-3M melanoma, more than 100 µM; in the test on OVCAR-4 ovarian it was 43.6 µM; in the test with OVCAR-8 ovarian, more than 100 µM; with SK-MEL-28 melanoma it was more than 100 µM; in the test on SK-OV-3 ovarian it was 52 µM. Also, the results for the TGI in the test with T-47D breast and in the test with UACC-257 melanoma were 5.45 µM and 1.69 µM, respectively.
For `CC(=O)C1=C(O)C=C2Oc3c(C(=O)/C=C/c4c(Cl)cccc4Cl)c(O)c(C)c(O)c3[C@]2(C)C1=O`, the GI50 with HL-60(TB) leukemia was 0.849 µM; in the test on MALME-3M melanoma, 2.1 µM; with OVCAR-4 ovarian it was 3.19 µM; with OVCAR-8 ovarian, 0.533 µM; in the test on SK-MEL-28 melanoma it was 1.32 µM; in the test with SK-OV-3 ovarian it was 2.57 µM. Also, the GI50 in the test on T-47D breast was 0.38 µM; with UACC-257 melanoma, 2.01 µM. The TGI in the test with HL-60(TB) leukemia worked out at 7.08 µM; in the test on MALME-3M melanoma, 4.96 µM; in the test with OVCAR-4 ovarian it was 11.3 µM; with OVCAR-8 ovarian, 2.06 µM; in the test with SK-MEL-28 melanoma, 3.83 µM; in the test with SK-OV-3 ovarian, 7.4 µM. Besides, the TGI with T-47D breast amounted to 2.41 µM; in the test on UACC-257 melanoma, 6.82 µM.
As for `CC(C)(C)c1cc(-n2c(-c3ccc(Cl)cc3)nc3cc(C(=O)Nc4ccc(Cl)cc4)ccc32)n[nH]1`, the GI50 is 3.18 µM with HL-60(TB) leukemia; 5.29 µM in the test with MALME-3M melanoma; 6.11 µM in the test with OVCAR-4 ovarian; 9.03 µM in the test on OVCAR-8 ovarian; 64.2 µM in the test on SK-MEL-28 melanoma; 21.6 µM with SK-OV-3 ovarian. For the same compound, the GI50 in the test with T-47D breast was 3.72 µM; in the test on UACC-257 melanoma it was 7.92 µM. For the same compound, the TGI in the test on HL-60(TB) leukemia is more than 100 µM; with MALME-3M melanoma, more than 100 µM; in the test on OVCAR-4 ovarian, more than 100 µM; in the test on OVCAR-8 ovarian, more than 100 µM; with SK-MEL-28 melanoma, more than 100 µM; in the test on SK-OV-3 ovarian, 66.4 µM. Also, the TGI in the test on T-47D breast and in the test on UACC-257 melanoma was more than 100 µM in each case.
Regarding `Oc1ccc(C(c2ccc(O)cc2)c2ccc(O)cc2)cc1`, the TGI was 41.5 µM in the test with HL-60(TB) leukemia; 44 µM in the test with MALME-3M melanoma; 29.1 µM in the test on OVCAR-4 ovarian; 32.6 µM in the test with OVCAR-8 ovarian; 45 µM with SK-MEL-28 melanoma; 42 µM with SK-OV-3 ovarian. In addition, the TGI came to 41 µM in the test on T-47D breast and 52.4 µM with UACC-257 melanoma.
Regarding `O=C1C=CC(=Nc2cc(Br)c(O)c(Br)c2)C=C1`, the GI50 in the test on HL-60(TB) leukemia is 7.65 µM; in the test with MALME-3M melanoma it was 18.4 µM; with OVCAR-4 ovarian it was 43 µM; in the test with OVCAR-8 ovarian it was 14.9 µM; in the test with SK-MEL-28 melanoma, 31.7 µM; in the test on SK-OV-3 ovarian it was 52.8 µM. The GI50 with T-47D breast is 12.4 µM; in the test on UACC-257 melanoma, 32.5 µM. Moreover, the TGI in the test on HL-60(TB) leukemia was 51.2 µM; in the test with MALME-3M melanoma it was more than 100 µM; in the test with OVCAR-4 ovarian, more than 100 µM; in the test with OVCAR-8 ovarian it was more than 100 µM; with SK-MEL-28 melanoma, more than 100 µM; with SK-OV-3 ovarian, more than 100 µM. The TGI in the test on T-47D breast was 41.4 µM; with UACC-257 melanoma, more than 100 µM.
For `Cc1cc(N2CCOCC2)nc(N[C@@H]2CCC[C@H](Nc3ccnc4cc(Cl)ccc34)C2)n1`, the GI50 with HL-60(TB) leukemia is 1.98 µM; in the test on MALME-3M melanoma it was 1.95 µM; with OVCAR-4 ovarian, 2.8 µM; in the test on OVCAR-8 ovarian it was 2.97 µM; in the test on SK-MEL-28 melanoma, 2.01 µM; in the test on SK-OV-3 ovarian it was 3.44 µM. The values for the GI50 with T-47D breast and in the test on UACC-257 melanoma were 1.68 µM and 2.14 µM, respectively. The TGI with HL-60(TB) leukemia was found to be 3.87 µM; in the test with MALME-3M melanoma, 3.67 µM; in the test on OVCAR-4 ovarian, 10.8 µM; with OVCAR-8 ovarian it was 8.49 µM; in the test on SK-MEL-28 melanoma, 3.8 µM; in the test with SK-OV-3 ovarian, 11.9 µM. For the same compound, the TGI stood at 3.71 µM with T-47D breast and 3.89 µM in the test on UACC-257 melanoma.
Take `S=C(Nc1ccc(-c2nc3ccccc3[nH]2)cc1)Nc1ccc(-c2nc3ccccc3[nH]2)cc1`: the GI50 in the test with HL-60(TB) leukemia was more than 100 µM; in the test on MALME-3M melanoma, 52.5 µM; in the test with OVCAR-4 ovarian, more than 100 µM; in the test on OVCAR-8 ovarian, 59.6 µM; in the test with SK-MEL-28 melanoma, more than 100 µM; with SK-OV-3 ovarian it was more than 100 µM. Besides, the GI50 in the test with T-47D breast and with UACC-257 melanoma was more than 100 µM in each case. Also, the TGI in the test with HL-60(TB) leukemia, in the test with MALME-3M melanoma, with OVCAR-4 ovarian, in the test with OVCAR-8 ovarian, in the test on SK-MEL-28 melanoma and in the test with SK-OV-3 ovarian was more than 100 µM each time. Besides, the TGI in the test with T-47D breast and in the test with UACC-257 melanoma was more than 100 µM in each case.

Source of the values: PubChem BioAssay (NCI).
